The subject of data set [1] is HepG2. Nature of the data set: Cytotoxicity against human HepG2 cells at 100 uM. The class given is cell-based. The note with it: hepg2, 100 µM.
For data set [2], the target named is Cytochrome P450 3A4 (Homo sapiens, UniProt P08684). Nature of the data set: Inhibition of CYP3A4 (unknown origin) at 10 uM. The data set is classed as ADME.
Data set [3] deals with T1, Nuclear receptor ROR-gamma (Mus musculus) (UniProt P51450).
T1 sequence (whole entry): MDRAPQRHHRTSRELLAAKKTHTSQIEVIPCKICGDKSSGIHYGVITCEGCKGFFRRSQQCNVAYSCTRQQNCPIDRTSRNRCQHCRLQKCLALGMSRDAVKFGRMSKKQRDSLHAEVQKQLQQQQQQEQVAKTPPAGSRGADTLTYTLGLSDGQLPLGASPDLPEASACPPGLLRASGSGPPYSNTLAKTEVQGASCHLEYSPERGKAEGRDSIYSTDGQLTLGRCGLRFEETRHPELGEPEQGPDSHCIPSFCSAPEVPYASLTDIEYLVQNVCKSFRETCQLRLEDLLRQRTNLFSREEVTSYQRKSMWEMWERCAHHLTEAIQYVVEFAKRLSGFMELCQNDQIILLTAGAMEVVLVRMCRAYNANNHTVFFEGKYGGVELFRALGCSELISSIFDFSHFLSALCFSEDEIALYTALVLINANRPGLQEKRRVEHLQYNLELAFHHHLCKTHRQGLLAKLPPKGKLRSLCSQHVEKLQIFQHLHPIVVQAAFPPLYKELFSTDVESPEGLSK
Nature of the data set: Agonist activity at RORgammat in mouse naive CD4+ T cells assessed as induction of IL17 production at 0.1 to 3 uM after 4 days by ELISA. The class given is cell-based.

Data set [4] can be described thus: Cmax in ICR mouse at 0.1 mg/kg, iv or 1 mg/kg, po by LC/MS/MS analysis. The data set is classed as ADME, organism-based. The note with it: in vivo.
Data set [5] in a line: AUC (0 to 8 hrs) in ICR mouse at 0.1 mg/kg, iv or 1 mg/kg, po by LC/MS/MS analysis. The class given is ADME, organism-based. The conditions noted are these: in vivo.
Data set [6] is described as follows: MRT in ICR mouse at 0.1 mg/kg, iv or 1 mg/kg, po by LC/MS/MS analysis. The data set is classed as ADME, organism-based. The conditions noted are these: in vivo.
Data set [7] can be described thus: Oral bioavailability in ICR mouse at 1 mg/kg by LC/MS/MS analysis. The data set is classed as ADME, organism-based. The note with it: in vivo.
Data set [8] has as its target T1, Nuclear receptor ROR-gamma (Mus musculus). The experiment in a line: Inverse agonist activity at RORgammat in mouse naive CD4+ T cells assessed as […] of IL17 production at 0.001 to 10 uM after 4 days by ELISA. The class given is cell-based. For orientation: An ELISA detects its analyte on a solid surface through an enzyme-linked reagent.

The source of these data is ChEMBL document CHEMBL4368916, “Design, Synthesis, and Biological Evaluation of Retinoic Acid-Related Orphan Receptor γt (RORγt) Agonist Structure-Based Functionality Switching Approach from In House RORγt Inverse Agonist to RORγt Agonist” (J Med Chem, 2019).

Usually Cmax stands for the maximum level reached in the sampled fluid or tissue. By AUC(0-t) is commonly meant the area under the concentration-time curve up to a stated or last time point. Higher therefore signals high exposure. Usually MRT stands for a mean duration of stay, worked out from the concentration-time curve. What is called bioavailability is dose-corrected exposure relative to a reference, in per cent. A low value points to poor availability.

Structures are written as SMILES. Active and inactive are the calls of the source. No cut-off for these calls is given here.

Cytochrome P450 3A4, sequence (P08684 whole entry): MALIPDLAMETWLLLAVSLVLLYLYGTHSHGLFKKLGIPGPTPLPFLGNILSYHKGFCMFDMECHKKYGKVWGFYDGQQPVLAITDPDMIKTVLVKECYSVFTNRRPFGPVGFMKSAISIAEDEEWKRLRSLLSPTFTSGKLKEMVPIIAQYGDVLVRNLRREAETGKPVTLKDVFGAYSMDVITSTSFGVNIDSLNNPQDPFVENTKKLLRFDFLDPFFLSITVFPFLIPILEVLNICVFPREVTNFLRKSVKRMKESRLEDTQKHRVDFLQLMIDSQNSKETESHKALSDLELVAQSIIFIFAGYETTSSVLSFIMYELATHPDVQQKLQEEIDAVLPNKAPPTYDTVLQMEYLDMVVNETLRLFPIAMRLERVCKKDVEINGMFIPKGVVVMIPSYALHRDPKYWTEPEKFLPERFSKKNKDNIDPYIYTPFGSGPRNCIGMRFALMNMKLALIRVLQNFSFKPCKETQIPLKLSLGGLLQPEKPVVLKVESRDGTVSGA

In the case of `CCOc1ccccc1CN1CCc2cc(NC(=O)[C@H]3c4ccc(OC)nc4CCN3C(=O)CCCC(=O)O)ccc21`, the Activity entry in data set [1] was “Non-Toxic”; in data set [3] it was “Dose-dependent effect”. In data set [2], the “inhibition (INH)” value is on record as “Not Active”. The compound further registered a Cmax in data set [4] of 227 ng/mL. This compound also registered an AUC(0-t) in data set [5] of 1720 ng·h/mL. The compound also returned an MRT in data set [6] of 4.1 h. Moreover, the bioavailability in data set [7] is 19%.
As for `COc1ccc2c(n1)CCN(C(=O)CCCC(=O)O)[C@H]2C(=O)Nc1cc(F)c2c(c1)CCC2(C)C`, the result in data set [8] was Active.
`CCOc1ccccc1CN1CCc2cc(NC(=O)[C@H]3c4ccc(OC)nc4CCN3C(C)=O)ccc21`: the Activity result in data set [3] is “Dose-dependent effect”.
